Measured values from PMC6522510 (Nature Communications, 2019).
Like-named read-outs stand apart in the source and are kept apart here.

How the values were obtained:
MOLM-13 [1] = experiment: Secondary dose-response HTS, Cell Titer Glo; format: cell-based, human; settings: Homo sapiens, MOLM-13
MV4-11 [2] = experiment: Secondary dose-response HTS, Cell Titer Glo; format: cell-based, human; settings: Homo sapiens, MV4-11
CHRF288-11 [3] = experiment: Secondary dose-response HTS, Cell Titer Glo; format: cell-based, human; settings: Homo sapiens
CMK = experiment: Secondary dose-response HTS, Cell Titer Glo; format: cell-based, human; settings: Homo sapiens, CMK
CMS [4] = experiment: Secondary dose-response HTS, Cell Titer Glo; format: cell-based, human; settings: Homo sapiens, HTS
M07e [5] = experiment: Secondary dose-response HTS, Cell Titer Glo; format: cell-based, human; settings: Homo sapiens, M-07e; secondary HTS, 72 h, average of triplicate; read-out: EC50 M07e
ML2 = experiment: Secondary dose-response HTS, Cell Titer Glo; format: cell-based, human; settings: Homo sapiens, ML-2
U937 [6] = experiment: Secondary dose-response HTS, Cell Titer Glo; format: cell-based, human; settings: Homo sapiens, U-937
CHRF288-11 [7] = format: cell-based; settings: Homo sapiens; 72 h, Cell Titer Glo; read-out: IC50 CHRF288-11
CMS [8] = format: cell-based; settings: Homo sapiens, 72 h, read-out: IC50 CMS
ML-2 = format: cell-based; settings: Homo sapiens, 72 h, Cell Titer Glo
MOLM-13 [9] = format: cell-based; settings: Homo sapiens, 72 h, Cell Titer Glo
MV4-11 [10] = format: cell-based; settings: Homo sapiens, 72 h, Cell Titer Glo
THP-1 = format: cell-based; settings: Homo sapiens, 72 h, Cell Titer Glo
U937 [11] = format: cell-based; settings: Homo sapiens, U-937; 72 h, Cell Titer Glo
[12] = tested on: AMKL primary AML blast samples; experiment: Ex vivo drug treatment of primary AML blasts on mesenchymal stromal cells; format: cell-based; settings: Homo sapiens; primary blasts on MSC, 96 h
[13] = tested on: CHRF288-11-luciferase/YFP+ xenograft; experiment: In vivo efficacy, survival; design: species or system NSG mice
[14] = tested on: AMKL patient-derived xenograft; experiment: In vivo efficacy, survival; design: species or system NSG-SGM3 mice; settings: AMKL PDX, i.p.
[15] = tested on: ML-2-luciferase/YFP+ xenograft; experiment: In vivo efficacy, survival; design: species or system NSG mice; settings: ML-2 xenograft, i.p.
[16] = tested on: Mll-PTD/wt:Flt3ITD/ITD primary transplants; experiment: In vivo efficacy, survival; design: species or system mice
[17] = In vivo tolerability / maximum tolerated dose; design: species or system mice; settings: multiple doses, intermittent every 3 or 4-day schedule
Method: Next, we sought to compare the in vivo efficacy of gemcitabine and cabazitaxel to the standard of care, cytarabine. Due to limitations with tolerability, we have previously treated our AML xenograft models with low-dose cytarabine[13],[31]. […] Tolerability studies of gemcitabine at the same dose and schedule was not tolerated. […] Similarly, we performed tolerability of cabazitaxel using multiple doses on an intermittent every 3 or 4-day schedule; the only tolerable dose was 5 mg/kg.
All animal studies were performed in accordance with Animal Care and Use Programs under protocols approved by the Institutional Animal Care and Use Committee at OSU. We have complied with the relevant ethical considerations for animal research overseen by this committee. Mice were housed in a barrier facility. Non-tumor bearing Ly5.2 C57Bl/6 (BoyJ) mice were treated with 100, 120, or 140 mg kg^−1 gemcitabine on an intermittent schedule every 3 days for 3 weeks; 3 or 6 mg kg^−1 doses were used to evaluate daily for 5 days schedule. All doses were administered by intraperitoneal injection; tolerability was assessed by daily weights and observation of changes in body condition.
Supplementary Figure 12. Establish maximum tolerated dose of gemcitabine. Non-tumor bearing female BoyJ mice were treated on an intermittent schedule every 3 days for 3 weeks with 100, 120, or 140 m gkg-1 gemcitabine (Gem ) or treated on a daily schedule once a day for 5 days with 3 or 6 m gkg-1 Gem. Daily weight of treated mice; data reported as a percent weight loss from day 0. Arrow indicate treatment days.

[18] = tested on: CBFA2T3-GLIS2/JAK2V617F-induced AMKL model; experiment: In vivo efficacy, survival; design: species or system mice; settings: CBFA2T3-GLIS2/JAK2V617F-Luc+ quaternary transplants, i.p.
[19] = tested on: Mll-PTD/wt:Flt3ITD/ITD secondary transplants; experiment: In vivo efficacy, survival; design: species or system mice; settings: 100 mg kg−1 daily x 5 days, i.p.
AML cell lines [20] = settings: human, 5 min
[21] = design: method as in Wang et al., Biol Blood Marrow Transplant 2014 and others; settings: ref Wang et al., Biol Blood Marrow Transplant 2014 and others, cited from earlier work
M07e [22] = experiment: cells; design: species or system AML cell lines (8); Secondary HTS, 10-point dose-response in triplicate, Cell Titer Glo viability, four-parameter fit EC50; settings: M-07e, 72 h, read-out: M07e
[23] = tested on: Mll PTD/wt:Flt3 ITD/ITD double knock-in primary transplant blasts (bone marrow, spleen); experiment: Accumulation in primary murine blasts; format: cell-based, mouse; settings: blasts from bone marrow or spleen
Method: Cells were washed twice with ice-cold PBS; cell pellets were solubilized in 400 µL 1 N NaOH and agitated (300 rpm) at room temperature for 2 h. Then samples were neutralized with […] 1 M HCl; a 25 µL aliquot of lysate was used to estimate protein concentration using a Pierce BCA protein assay kit (Thermo Scientific). Total radioactivity was measured by a Tri-Carb 4810TR liquid scintillation counter (Perkin-Elmer) after mixing the sample with 4 mL of Emulsifier Safe (Perkin Elmer); the results were normalized to total protein content as measured by a Pierce BCA protein assay kit. Three independent experiments were performed in triplicate.
Bone marrow and splenocytes were isolated from mice transplanted with dKI AML and CG-V617 AMKL. Following red blood cells lysis, dKI AML leukemic blasts from vehicle treated mice were evaluated for accumulation of cytarabine and gemcitabine using the uptake assay described above.
Supplementary Figure 5. Accumulation of cytarabine and gemcitabine .
unlabeled and [3H]-cytarabine (Ara- C) or gemcitabine ( Gem ). Intracellular Ara- C, Gem ,
scintillation counting and normalized to protein levels. Representative chromatogram for
as disintegrations per minute (DPM) over complete run time. (c) Percentage of total
independent experiments (N=9). (d) Accumulation was determined in cell lysate of bone
double knock-in primary transplant recipient. […]

AML cell lines [24] = experiment: Intracellular drug and phosphorylated metabolites by HPLC with liquid scintillation counting; settings: 2 h, 1 µM
[25] = secondary high-throughput screen, read-out: average effective concentration, MV4-11
[26] = secondary high-throughput screen, read-out: average effective concentration, ML-2

Structure (SMILES): CO[C@H]1C(=O)[C@]2(C)[C@@H](OC)C[C@H]3OC[C@@]3(OC(C)=O)[C@H]2[C@H](OC(=O)c2ccccc2)[C@]2(O)C[C@H](OC(=O)[C@H](O)[C@@H](NC(=O)OC(C)(C)C)c3ccccc3)C(C)=C1C2(C)C [Cabazitaxel, cabazitaxel]
- EC50 (MOLM-13 [1]; secondary HTS, 72 h, average of triplicate, read-out: EC50 MOLM-13): 1 nM
- EC50 (MV4-11 [2]; secondary HTS, 72 h, average of triplicate, read-out: EC50 MV4-11): 0.3 nM
- EC50 (MV4-11 [2]; [25]): 0.34 nM
- EC50 (CHRF288-11 [3]; secondary HTS, 72 h, average of triplicate, read-out: EC50 CHRF288-11): 1 nM
- EC50 (CMK; 72 h, read-out: EC50 CMK): 1 nM
- EC50 (CMS [4]; 72 h, read-out: EC50 CMS): 1 nM
- EC50 (M07e [5]): 1 nM
- EC50 (ML2; secondary HTS, 72 h, average of triplicate, read-out: EC50 ML2): 1 nM
- EC50 (ML2; [26]): 0.5 nM
- EC50 (U937 [6]; secondary HTS, 72 h, average of triplicate, read-out: EC50 U937): 1 nM
- IC50 (CHRF288-11 [7]): 2.9 nM
- IC50 (CMS [8]): 6.3 nM
- IC50 (ML-2): 1.6 nM
- IC50 (MOLM-13 [9]): 1.2 nM
- IC50 (MV4-11 [10]): 1.5 nM
- IC50 (THP-1): 4.4 nM
- IC50 (U937 [11]): 0.8 nM
- IC50 [12]: > 50000 nM
- Median survival ([13]; CHRF288-11 xenograft, 5 mg kg−1 q4d, i.p.): 44 days
- Median survival ([13]; CHRF288-11 xenograft, 5 mg kg−1 q4d, x 2 cycles, i.p.): 40 days
- Median survival ([14]; 5 mg kg−1 q4d): 62 days
- Median survival ([15]; 5 mg kg−1 q4d): 82 days
- Median survival ([16]; mouse, in vivo, ip): 60 days
- only tolerable dose [17]: 5 mg/kg

Structure (SMILES): Nc1ccn([C@@H]2O[C@H](CO)[C@@H](O)[C@@H]2O)c(=O)n1 [Cytarabine, cytarabine]
- EC50 (MOLM-13 [1]; secondary high-throughput screen, read-out: average effective concentration, MOLM-13): 300 nM
- EC50 (MV4-11 [2]; [25]): 2600 nM
- EC50 (CHRF288-11 [3]; HTS, secondary high-throughput screen, CHRF288-11, read-out: average effective concentration, CHRF288-11): 1900 nM
- EC50 (CMK; secondary high-throughput screen, read-out: average effective concentration, CMK): 320 nM
- EC50 (CMS [4]; secondary high-throughput screen, CMS, read-out: average effective concentration, CMS): 290 nM
- EC50 (ML2; [26]): 100 nM
- EC50 (U937 [6]; secondary high-throughput screen, U937, read-out: average effective concentration, U937): 290 nM
- IC50 (CHRF288-11 [7]): 606 nM
- IC50 (CMS [8]; Cell Titer Glo): 5370 nM
- IC50 (ML-2): 26 nM
- IC50 (MOLM-13 [9]): 31 nM
- IC50 (MV4-11 [10]): 1980 nM
- IC50 (THP-1): 8810 nM
- IC50 (U937 [11]): 11 nM
- IC50 [12]: 54 nM
- Median survival ([13]; CHRF288-11-Luc+ model, low-dose 6.25 mg/kg once daily for 5 days for 3 weeks): 26 days
- Median survival ([13]; CHRF288-11 xenograft, 50 mg kg−1 q4d, i.p.): 25 days
- Median survival ([14]; 50 mg kg−1 q4d): 56 days
- Median survival ([15]; 50 mg kg−1 q4d): 29 days
- Median survival ([18]; 50 mg kg−1 daily x 5 days): 63 days
- Median survival ([18]; 100 mg kg−1 daily x 5 days): 80 days
- Median survival ([16]; Mll-PTD/wt:Flt3ITD/ITD primary transplants, 50 mg kg−1 q4d, i.p.): 50 days
- Median survival [19]: 49 days
- higher concentration of cytarabine giving nearly equivalent intracellular exposure to 1 µM gemcitabine (AML cell lines [20]; 10 µM): ~10 fold
- uptake at 10 µM cytarabine compared to 1 µM cytarabine (AML cell lines [20]; 10 µM): 1.6–3.7 fold
- uptake at 100 µM cytarabine compared to 1 µM cytarabine (AML cell lines [20]; 100 µM): 7–12 fold
- triphosphate elimination α half-life ([21]; biphasic): 7 to 20 min
- triphosphate elimination β half-life ([21]; biphasic): 2 to 3 h
- EC50 (M07e [22]): > 10000 nM

Structure (SMILES): Nc1ccn([C@@H]2O[C@H](COP(=O)(O)OP(=O)(O)OP(=O)(O)O)[C@@H](O)C2(F)F)c(=O)n1 [dFdCTP, gemcitabine triphosphate]
- accumulation of dFdCTP versus Ara-CTP [23]: 2.4–5.3 fold
- cellular elimination half-life (biphasic) ([21]; higher cellular concentrations): 15 to 24 h
- accumulation of dFdCTP compared to Ara-CTP (AML cell lines [24]; AML cell lines): 7.3–61.2 fold
- share of the total intracellular accumulation (AML cell lines [24]; all cell lines evaluated): 58–81%
